From patent publication US9833497B2, “Human originated EGF domain proteins and use of the same” (CHENGDU SOURCEBIO LIMITED-LIABILITY COMPANY, priority 2013, dated 2017) come the findings set out here.

In general, MIC refers to the lowest concentration found to suppress growth. High values mean a need for much substance, low ones inhibition by little substance.

Common to all, as to type: cell-based
One experiment deals with Proteus vulgaris. The experiment can be described thus: MIC against Gram-negative bacteria: Proteus vulgaris. As to conditions: P. vulgaris, 10 h cultivation at 37° C. The method in brief: (§1)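 LB broth cultures at McFarland 0.5, spun down, resuspended, diluted to 5×10^5 CFU/mL final. Two-fold serial dilutions of purified human EGF domain proteins, triplicate. 37° C, 175 rpm shaking. Endpoint: no visible growth.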

The next experiment concerns Moraxella catarrhalis. The experiment can be described thus: MIC against Gram-negative bacteria: Moraxella catarrhalis. As to conditions: M. catarrhalis, 10 h cultivation at 37° C. An outline of the steps:
as §1

For a further experiment, the system named is Enterobacter cloacae. Put plainly: MIC against Gram-negative bacteria: Enterobacter cloacae. As to conditions: E. cloacae, 10 h cultivation at 37° C. An outline of the steps: as §1
A further experiment deals with E. coli DH5α. The experiment can be described thus: Antibacterial activity: MIC and growth curve against E. coli DH5α in 96-well plate. As to conditions: minimal inhibitory concentration against E. coli DH5α; 96-well plate, 5×10^5 CFU/mL, 37° C., judged after 8 h. The method in brief:
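Log-phase DH5α (OD600 about 0.5, 37° C, 185 rpm in LB) was pelleted, resuspended in fresh LB and seeded at 5×10^5 CFU/mL with recombinant protein at 50, 25 and 12.5 μg/mL (two-fold series), in triplicate. Plates were shaken at 175 rpm, 37° C, and OD600 was read every 30 min. MIC was the lowest concentration with no growth.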

For the next experiment, the system named is Citrobacter diversus. The experiment can be described thus: MIC against Gram-negative bacteria: Citrobacter diversus. As to conditions: C. diversus, 10 h cultivation at 37° C. An outline of the steps: as §1
The next experiment relates to Klebsiella pneumonia. The experiment can be described thus: MIC against Gram-negative bacteria: Klebsiella pneumonia. As to conditions: K. pneumonia, 10 h cultivation at 37° C. An outline of the steps:
as §1

Another experiment has as its system Serratia marcescens. The experiment can be described thus: MIC against Gram-negative bacteria: Serratia marcescens. As to conditions: S. marcescens, 10 h cultivation at 37° C. The method in brief: as §1
In another experiment the test system is Pseudomonas aeruginosa. Put plainly: MIC against Gram-negative bacteria: Pseudomonas aeruginosa. As to conditions: P. aeruginosa, 10 h cultivation at 37° C. An outline of the steps: as §1
Another experiment relates to Proteus mirabilis. The experiment can be described thus: MIC against Gram-negative bacteria: Proteus mirabilis. As to conditions: P. mirabilis, 10 h cultivation at 37° C. The method in brief: as §1
The test system of the next experiment is Aeromonas hydrophila. Put plainly: MIC against Gram-negative bacteria: Aeromonas hydrophila. As to conditions: A. hydrophila, 10 h cultivation at 37° C. An outline of the steps:
as §1

The subject of another experiment is E. coli BL21. Put plainly: MIC against Gram-negative bacteria: E. coli BL21. As to conditions: E. coli BL21, 10 h cultivation at 37° C. An outline of the steps: as §1

“PRT436 (DINECEHRNHTCNLQQTCYNLQGGFKCIDPIRCEEPYLRISDNRCM; listed as Homo sapiens)”: the minimum inhibitory concentration (MIC) against Proteus vulgaris (5×10^5 CFU/mL) came out at 50 mg/L; against Moraxella catarrhalis (5×10^5 CFU/mL), 50 mg/L; in the experiment on Enterobacter cloacae (5×10^5 CFU/mL) it was 12.5 mg/L; against E. coli DH5α, 12.5 mg/L; in the experiment on Citrobacter diversus (5×10^5 CFU/mL), 12.5 mg/L; in the experiment with Klebsiella pneumonia (5×10^5 CFU/mL) it was 25 mg/L. In addition, the MIC came to 100 mg/L in the experiment on Serratia marcescens (5×10^5 CFU/mL); 50 mg/L with Pseudomonas aeruginosa (5×10^5 CFU/mL); 12.5 mg/L with Proteus mirabilis (5×10^5 CFU/mL); 50 mg/L in the experiment with Aeromonas hydrophila (5×10^5 CFU/mL); 25 mg/L against E. coli BL21 (5×10^5 CFU/mL).

For the substance “PRT428 (DVNECWASPGRLCQHTCENTLGSYRCSCASGFLLAADGKRCE; listed as Homo sapiens)”, the minimum inhibitory concentration (MIC) worked out at 50 mg/L in the experiment on Proteus vulgaris (5×10^5 CFU/mL); 50 mg/L against Moraxella catarrhalis (5×10^5 CFU/mL); 50 mg/L in the experiment with Enterobacter cloacae (5×10^5 CFU/mL); 50 mg/L in the experiment with E. coli DH5α; 12.5 mg/L against Citrobacter diversus (5×10^5 CFU/mL); 25 mg/L in the experiment on Klebsiella pneumonia (5×10^5 CFU/mL). The MIC stood at 12.5 mg/L in the experiment with Serratia marcescens (5×10^5 CFU/mL); 12.5 mg/L in the experiment with Pseudomonas aeruginosa (5×10^5 CFU/mL); 12.5 mg/L against Proteus mirabilis (5×10^5 CFU/mL); 25 mg/L in the experiment with Aeromonas hydrophila (5×10^5 CFU/mL); 25 mg/L against E. coli BL21 (5×10^5 CFU/mL).

As to “PRT944 (TSHPCFVSRPCLNGGTCHMLSRDTYECTCQVGFTGKECQ; listed as Homo sapiens)”, the MIC against Proteus vulgaris worked out at 50 mg/L; in the experiment on Moraxella catarrhalis it was 12.5 mg/L; with Enterobacter cloacae, 50 mg/L; against E. coli DH5α, 12.5 mg/L; in the experiment with Citrobacter diversus it was 50 mg/L; against Klebsiella pneumonia, 100 mg/L. The MIC stood at 12.5 mg/L in the experiment on Serratia marcescens; 50 mg/L in the experiment with Pseudomonas aeruginosa; 25 mg/L against Proteus mirabilis; 12.5 mg/L against Aeromonas hydrophila; 25 mg/L in the experiment on E. coli BL21.

For “PRT190 (ECPLNYCRNGGTCVVEKNGPMCRCRQGWKGNRC; listed as Homo sapiens)”, the “MIC (μg/mL) P. vulgaris” value against Proteus vulgaris (5×10^5 CFU/mL) amounted to 12.5 µg/mL. For the same substance, in the experiment on Moraxella catarrhalis (5×10^5 CFU/mL), the “MIC (μg/mL) M. catarrhalis” value is 12.5 µg/mL. The “MIC (μg/mL) E. cloacae” value against Enterobacter cloacae (5×10^5 CFU/mL) is 12.5 µg/mL. In the experiment on E. coli DH5α, this substance returned an MIC of 12.5 mg/L. The “MIC (μg/mL) C. diversus” value in the experiment with Citrobacter diversus (5×10^5 CFU/mL) turned out to be 12.5 µg/mL. Moreover, in the experiment with Klebsiella pneumonia (5×10^5 CFU/mL), the “MIC (μg/mL) K. pneumonia” value worked out at 25 µg/mL. Further, the “MIC (μg/mL) S. marcescens” value against Serratia marcescens (5×10^5 CFU/mL) was found to be 12.5 µg/mL. The “MIC (μg/mL) P. aeruginosa” value in the experiment on Pseudomonas aeruginosa (5×10^5 CFU/mL) was determined as 50 µg/mL. Moreover, the “MIC (μg/mL) P. mirabilis” value in the experiment on Proteus mirabilis (5×10^5 CFU/mL) stood at 12.5 µg/mL. Further, the “MIC (μg/mL) A. hydrophila” value in the experiment on Aeromonas hydrophila (5×10^5 CFU/mL) was 25 µg/mL. In addition, in the experiment on E. coli BL21 (5×10^5 CFU/mL), the “MIC (μg/mL) E. coli BL21” value was determined as 25 µg/mL.

Take “PRT882 (SAKQCDSYPCKNNAVCKDGWNRFICDCTGTGYWGRTCE; listed as Homo sapiens)”: the “MIC (μg/mL) P. vulgaris” value against Proteus vulgaris (5×10^5 CFU/mL) turned out to be 12.5 µg/mL. Also, in the experiment on Moraxella catarrhalis (5×10^5 CFU/mL), the “MIC (μg/mL) M. catarrhalis” value turned out to be 12.5 µg/mL. In the experiment on Enterobacter cloacae (5×10^5 CFU/mL), the “MIC (μg/mL) E. cloacae” value was found to be 25 µg/mL. In the experiment with E. coli DH5α, this substance gave an MIC of 25 mg/L. Also, the “MIC (μg/mL) C. diversus” value in the experiment on Citrobacter diversus (5×10^5 CFU/mL) worked out at 50 µg/mL. Besides, the “MIC (μg/mL) K. pneumonia” value in the experiment with Klebsiella pneumonia (5×10^5 CFU/mL) amounted to 12.5 µg/mL. The “MIC (μg/mL) S. marcescens” value in the experiment with Serratia marcescens (5×10^5 CFU/mL) was found to be 50 µg/mL. Also, in the experiment on Pseudomonas aeruginosa (5×10^5 CFU/mL), the “MIC (μg/mL) P. aeruginosa” value was found to be 25 µg/mL. The “MIC (μg/mL) P. mirabilis” value in the experiment on Proteus mirabilis (5×10^5 CFU/mL) amounted to 50 µg/mL. For the same substance, the “MIC (μg/mL) A. hydrophila” value in the experiment on Aeromonas hydrophila (5×10^5 CFU/mL) was 100 µg/mL. For the same substance, in the experiment on E. coli BL21 (5×10^5 CFU/mL), the “MIC (μg/mL) E. coli BL21” value came to 12.5 µg/mL.
